Measurements taken from patent publication US5939404A, “Cancer metastasis inhibitor containing a streptococcus agalactiae Ia type or Ib type surface polysaccharide as a main ingredient” (NGK Insulators, Ltd., priority 1997, dated 1999).

Key:
[1] = test system: adhesion between the cell-lined intravascular endothelial cell strain #5-1 and the cancer cells HL-60; experiment: Adhesion inhibition of [35S]methionine-labeled HL-60 cancer cells to cell-lined intravascular endothelial cell strain #5-1 (FIGS. 9(a), 9(b)); type: cell-based, human; details: at a concentration at which the Ia or Ib sugar chain exhibited adhesion inhibiting activity
Procedure: (4) Next, how much adhesion of the cancer cell to the intravascular endothelial cells thus cultivated was inhibited by the addition of the sugar chain obtained above to the intravascular endothelial cells was examined. First, intravascular endothelial cells were placed on one plane of a 96-well plate, and appearance of E-selectin was induced by adding interleukin-1β to the cells. The cultivation for about 3 hours made E-selectin appear. The Ia type or Ib type sugar chain was added to it, and 1×10^4 cancer cells labeled with [^35 S] methionine were added to it, and the mixture was left at 37° C. for 30 minutes as it was. Thereafter, the mixture was immersed in and washed with PBS, and those cancer cells not adhered were washed off. The cells were recovered by adding 100 μl of a 0.1 N aqueous solution of sodium hydroxide to each of the 96-well plates, and a residual radioactivity value was measured by using a liquid scintillation counter.

[2] = test system: adhesion of the cancer cells HL-60 to the intravascular endothelial cells; experiment: Microscopic observation of adhesion of HL-60 cancer cells to intravascular endothelial cells (FIG. 8); type: cell-based, human; details: interleukin-1β added (FIG. 8b) vs not added (FIG. 8a)
Text: Slender, large cells are intravascular endothelial cells, and whitish, bright, round cells are cancer cells HL-60.

E-selectin = E-selectin appearance on intravascular endothelial cells by fluorescent microscopy with E-selectin antibody (FIG. 7); type: cell-based; details: interleukin-1β added (FIGS. 7(a), 7(b)) vs not added; human normal cells and strain #5
Procedure: FIGS. 7(a) through 7(d) are microphotographs obtained by photographing with a fluorescent microscope to confirm whether E-selectin was produced or not at the surfaces of the intravascular endothelial cells, through coloring the human normal intravascular endothelial cells and the cell-lined human intravascular endothelial cell strains #5 with E-selectin antibody. As compared with cases in which no interleukin-1β was added (FIGS. 7(c) and 7(d)), it is clear that appearance of E-selectin was induced in cases where interleukin-1β was added (FIGS. 7(a) and 7(b)).

| Substance | adhesion inhibiting activity [1] | adhesion of the cancer cells to the intravascular endothelial cells (microphotographs) [2] | appearance of E-selectin (E-selectin) |
| --- | --- | --- | --- |
| colominic acid | not almost exhibited |  |  |
| interleukin-1β: added to the cells to induce appearance of E-selectin |  | more conspicuous | induced |
